The values below come from patent US8796280B2, “2,3-disubstituted pyrazinesulfonamides as CRTH2 inhibitors” (Merck Serono, S.A., priority 2005, dated 2014).

Test [1] concerns the target T1, CRTH2 (Homo sapiens (Human), UniProt Q9Y5Y4). Put plainly: [35S]GTPγS binding assay. As to conditions: inhibition of [35S]GTPγS binding, membranes expressing hCRTH2, 80 nM PGD2 (antagonist activity). It counts as biochemical. Here is the method:
The [^35S]GTPγS assay measures the increase in guanine nucleotide exchange at G-proteins in cell membranes, resulting from agonist (PGD2) binding to CRTH2. This process can be monitored in vitro by incubating cell membranes containing G-proteins and CRTH2 with GDP and [^35S]GTPγS, a radiolabeled, hydrolysis-resistant analogue of GTP (see, Harrison et al., Life Sciences 74, 489-508, 2003). The addition of a pyrazine sulfonamide results in binding to CRTH2 and thus in an inhibition of agonist binding, which can be monitored as inhibition of the stimulation of GTP/GDP exchange.
Assay conditions were identical to conditions of radioligand binding assay as described in Example 21. The [^35S]GTPγS binding assay was performed at 30° C. with gentle agitation in 96-well scintillating white polystyrene plates (Perkin Elmer, USA), in a final volume of 200 μl, containing 2% of dimethylsulphoxide (Me2SO). The 2,3 substituted pyrazine sulfonamides were incubated in 20 mM HEPES/KOH pH 7.4, 1 mM MgCl2, 10 μg/ml Saponin, 3 μM GDP, 150 mM NaCl containing 10 μg of membranes expressing the hCRTH2 receptor (Euroscreen, Belgium) for 10 min. Non-specific binding was determined in the presence of 10 μM of GTPγS. Samples were incubated for 30 min in the presence of increasing concentrations of PGD2 for the determination of agonist activity, or with 80 nM of PGD2 for determination of antagonist activity, respectively. 0.15 nM of [^35S]GTPγS were subsequently added to each sample and after incubation of 30 min reactions were stopped by centrifugation at 1000×g, at 4° C. for 10 min. Supernatant was removed and [^35S]GTPγS binding was determined using a 1450 Micro-beta scintillation counter. Data were analysed using “Prism” (GraphPad Software, Inc. San Diego, USA). The determination of the IC50 values (i.e. the amount necessary to achieve 50% inhibition of binding (in μM)) were performed in 96 well plates, in a final volume of 100 μl according to the above described filtration assay. […]
A general note: Binding of GTPγS marks nucleotide exchange on a G protein.

Test [2] addresses T1, CRTH2. Description: Radioligand binding assay ([3H]PGD2 displacement, hCRTH2 HEK293 (EBNA) cell membranes). As to conditions: 1.5 nM [3H]PGD2, 10 μg hCRTH2 HEK293 (EBNA) membrane protein, 60 min room temperature; test concentration not given. An excerpt: Human CRTH2 cDNA was amplified by PCR using a human urinary bladder cDNA library as a template and specific primers containing HindIII and BamHI restriction sites for cloning into the pCEP4 vector (Invitrogen). The vector construction is described in detail in Sawyer et al., Br. J. Pharmocol 2002, 137, 1163-72. The nucleotide sequence of the cloned cDNA was identical the previously reported hCRTH2 sequence (Nagata et al, 1999, J. Immunol. 162, 1278-1286).
HEK293 (EBNA) cells were transfected with the pCEP4-hCRTH2 construct using the calcium phosphate technique. Cells were maintained in culture at 37° C. in an atmosphere of 5% CO2 in Dulbecco's modified Eagle's F12 medium (Invitrogen), containing 10% heat-inactivated foetal calf serum (TerraCell International, Canada), 2 mM Glutamine, 100 units/ml of penicillin and 100 μg/ml streptomycin (Invitrogen). 48 hours after the transfection, cells were grown in presence of 300 μg/ml of Hygromycin B (Invitrogen) for 4 weeks and antibiotic resistant cells were amplified for cell membrane preparation.
Adherent HEK293 (EBNA) cells expressing hCRTH2 were cultured in 225 cm^2 cell culture flasks (Corning, USA) in 30 ml of medium. After two rinses of phosphate buffered saline (PBS), cells were harvested in 10 ml of PBS containing 1 mM EDTA, centrifuged at 500×g for 5 min at 4° C. and frozen at −80° C. The pellet was re-suspended in 50 mM Tris-HCl, pH 7.4, 2 mM EDTA, 250 mM Sucrose, containing protease inhibitor cocktail tablets, (Complete EDTA-free, Roche, Germany) and incubated 30 min at 4° C. Cells were disrupted by nitrogen cavitation (Parr Instruments, USA) at 4° C. (800 p.s.i. for 30 min), and centrifuged at 500×g for 10 min at 4° C. Pellet containing nuclei and cellular debris was discarded and supernatant was centrifuged 60 min at 4° C. at 45000×g. Membrane pellet was re-suspended in storage buffer (10 mM HEPES/KOH pH 7.4, 1 mM EDTA, 250 mM sucrose, protease inhibitor cocktail tablets) using Dounce homogenization and frozen in liquid nitrogen, and stored at −80° C.
(§1) The inhibitory activity can be investigated by a radioligand binding assay (Sawyer et al., Br. J. Pharmocol 2002, 137, 1163-72). The radioligand binding assay was performed at room temperature in binding buffer (10 mM HEPES/KOH pH […], with protease inhibitor cocktail tablets), containing 1.5 nM [^3H]PGD2 (Amersham, 156 Cie/mmol), and 10 μg of hCRTH2 HEK293 (EBNA) cell membrane protein in a final volume of 100 μl in 96 well plates (Corning, USA). Non-specific binding was determined in the presence of 1 μM PGD2 (Cayman, USA). Competing pyrazine sulfonamides were diluted in dimethylsulphoxide so that the total volume of dimethylsulfoxide was kept constant at 1% dimethylsulphoxide (Me2SO). 10 μl of the pyrazine sulfonamides were added. Incubation (60 min at room temperature) was terminated by rapid filtration through 96 wells hydrophobic GF/C Unifilter plates (Whatman, USA). Filters were washed twice with 250 μl of Tris-HCl pH 7.4, 10 mM MnCl2, and residual radioligand bound to the filters was mixed to 100 μl of liquid scintillation cocktail (Optiphase Supermix, Perkin Elmer, USA) and binding activity was determined by counting residual radioligand using a 1450 Micro-beta scintillation counter (Wallac, UK).

Test [3] concerns the target T1, CRTH2. Description: Determination of Ki, equilibrium competition binding against [3H]PGD2. As to conditions: competition against [3H]PGD2; average of at least three independent dose response experiments; Ki calculated from IC50. Here is the method: as §1
Ki values were determined by equilibrium competition binding experiments against [^3H]PGD2. Ki values were calculated from the formula below and represent the average of at least three independent dose response experiments. The Ki values give the ligand concentrations necessary to inhibit 50% of the binding of 3[H]PGD2 to CRTH2. Ki=IC50/(1+[Concentration of Ligand]/Kd)]
All experiments were performed in 96 well plates, in a final volume of 100 μl according to the above described filtration assay. The concentration of membranes and 3[H]PGD2, as well as the positive and negative controls were identical to the conditions described above.

Molecules are shown by their SMILES. pIC50, pKi: −log10 of the molar value.

T1 sequence (Q9Y5Y4 whole entry): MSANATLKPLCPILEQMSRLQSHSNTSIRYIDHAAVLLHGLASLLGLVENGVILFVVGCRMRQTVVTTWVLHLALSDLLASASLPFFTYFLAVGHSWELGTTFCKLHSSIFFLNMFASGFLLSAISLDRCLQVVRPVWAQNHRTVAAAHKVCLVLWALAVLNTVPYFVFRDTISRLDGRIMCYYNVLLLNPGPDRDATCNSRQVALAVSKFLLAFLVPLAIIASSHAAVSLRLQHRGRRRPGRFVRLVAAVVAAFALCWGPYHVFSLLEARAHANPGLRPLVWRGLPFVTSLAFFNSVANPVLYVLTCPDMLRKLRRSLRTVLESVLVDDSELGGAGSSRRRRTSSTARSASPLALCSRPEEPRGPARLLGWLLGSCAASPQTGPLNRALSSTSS

In the case of `O=S(=O)(Nc1nccnc1-c1ccc(Cn2ccc3ccccc32)cc1)c1ccccc1C(F)(F)F` [Compound 1, N-{3-[4-(1H-indol-1-ylmethyl)phenyl]pyrazin-2-yl}-2-(trifluoromethyl)benzene-sulfonamide], the pIC50 at CRTH2 [1] was 5.72. On CRTH2 [2], the “Inhibition hCRTH2 [%]” value is 94.5%. Moreover, the pKi on CRTH2 [3] is 6.00.
On CRTH2 [1], `CN(Cc1ccc(-c2nccnc2NS(=O)(=O)c2ccccc2Cl)cc1)c1ccc(OC(F)(F)F)cc1` [Compound 2, 2-chloro-N-{3-[4-({methyl[4-(trifluoromethoxy)phenyl]amino}-methyl)-phenyl]pyrazin-2-yl}benzene sulfonamide] had a pIC50 of 5.34. The “Inhibition hCRTH2 [%]” value at CRTH2 [2] amounted to 91.5%. Besides, the pKi at CRTH2 [3] is 5.90.
The corresponding values for `CCc1nc2ccccc2n1Cc1ccc(-c2nccnc2NS(=O)(=O)c2ccccc2C(F)(F)F)cc1` [Compound 3, N-(3-{4-[(2-ethyl-1H-benzimidazol-1-yl)methyl]phenyl}pyrazin-2-yl)-2-(trifluoromethyl)benzenesulfonamide] are 5.85, 86.5% and 6.35.

In general, pIC50 refers to −log10 of the IC50, conventionally taken in molar units. Usually pKi stands for the Ki on a negative log10 scale, so that one unit is a factor of ten.
